Records with an inconclusive call do not appear. Active and inactive are the calls of the source.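 The calls were made as follows: active = compound lowering the normal-ribosome reporter at least twice as much as the humanized-ribosome reporter, growth loss under a set limit; inconclusive = no clear call, values can overlap the other calls; inactive = the rest.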
Tested on: E. coli WT GFP strain growth, fluorescence, 24 h
Assay: growth of wild-type and h24-humanized E. coli strains – h24 mutant RFP vs wild-type GFP, cherry-pick, dose response (AID 977628)

| SMILES | AC50 | AC50 (measured here: WT GFP, test 1) |
| --- | --- | --- |
| CN(C)CCCNc1ccc(-c2cc(Nc3cccc(Cl)c3)ncn2)cn1 | > 100 µM (inactive) | – |
| Cc1cccc(S(=O)(=O)NC(=O)C2(C)CCN2C(=O)c2ccccc2CCc2ccccc2)c1 (stereo not drawn) | > 100 µM (inactive) | – |
| COc1ccc(OC)c(S(=O)(=O)Nc2cccc3ccccc23)c1 | > 100 µM (inactive) | – |
| O=C(Nc1ccc2c(c1)OCCO2)c1cccnc1Oc1ccc(Cl)cc1 | > 100 µM (inactive) | – |
| COC(=O)c1ccc2nc(-c3cccc(Br)c3)c(Cc3ccsc3)n2c1 | > 100 µM (inactive) | – |
| COc1ccc(CNc2ncnc3cc(OC)c(OC)cc23)cc1OC | > 100 µM (inactive) | – |
| NC(=O)c1nsc(C(=O)N(c2ccccc2F)C(C(=O)NCc2ccc(F)cc2)c2ccc(O)cc2)c1N (stereo not drawn) | > 100 µM (inactive) | – |
| CN(C)CCN(C(=O)c1ccc2c(c1)CCCC2)c1nc2c(F)cccc2s1 | > 100 µM (inactive) | – |
| Cc1ccc(C2NC(=O)c3[nH]nc(-c4ccccc4)c32)cc1 (stereo not drawn) | > 100 µM (inactive) | – |
| COc1ccccc1-n1c(Cc2ccccc2)nc2ccccc2c1=O | > 100 µM (inactive) | – |
| COc1ccc2[nH]c3c(=O)n(CCCCC(=O)NCCC(C)C)c(=S)[nH]c3c2c1 | > 100 µM (inactive) | > 100 µM |
| CSc1ccccc1NC(=O)CN(c1cccc(C)c1)S(C)(=O)=O | > 100 µM (inactive) | – |
| CC(Nc1ncnc2ccccc12)c1ccccc1 (stereo not drawn) | > 100 µM (inactive) | – |
| CCN(CC)CCN(C(=O)c1ccc2c(c1)OCCO2)c1nc2cc(C)cc(C)c2s1 | > 100 µM (inactive) | – |
| CC(=O)N1CCOc2ccc(S(=O)(=O)N(C)c3ccc(C)cc3)cc21 | > 100 µM (inactive) | – |
| CC1CCCN(c2ccc(C(=O)NCCc3ccccc3)cn2)C1 (stereo not drawn) | > 100 µM (inactive) | – |
| Fc1cccc(Cc2c(-c3ccco3)nc3c4ccccc4ccn23)c1 | > 100 µM (inactive) | – |
| COc1ccccc1CNC(=O)CSc1ccc(C)cc1 | > 100 µM (inactive) | – |
| O=S(=O)(c1ccc(Cl)cc1)N1CCN=C1SCc1cccc(Cl)c1 | > 100 µM (inactive) | – |
| O=C(O)c1ccccc1Nc1cc(Cl)c2nonc2c1[N+](=O)[O-] | > 100 µM (inactive) | – |
| CC1CCCN(C(=O)C(C)Nc2cc(Cl)ccc2N2CCOCC2)C1 (stereo not drawn) | > 100 µM (inactive) | – |
| CCn1nc(C(=O)OCc2cccc(S(=O)(=O)N(C)C)c2)c2ccccc2c1=O | > 100 µM (inactive) | – |
| CC(=O)N1CCN(c2nc(-c3cccs3)nc3ccccc23)CC1 | > 100 µM (inactive) | – |

| SMILES | AC50 | AC50 (measured here: WT GFP, test 1) |
| --- | --- | --- |
| Cc1nnn(C23C[C@@H]4C[C@@H](CC(C(=O)N5CCN(c6ccccc6)CC5)(C4)C2)C3)n1 | > 100 µM (inactive) | – |
| Cc1ccc(S(=O)(=O)N2CC(=O)Nc3ccccc32)cc1C | > 100 µM (inactive) | – |
| Cc1nn(S(=O)(=O)c2ccc(Cl)cc2)c(C)c1Sc1ccc([N+](=O)[O-])cc1 | > 100 µM (inactive) | – |
| O=c1[nH]c(C2CCCN(S(=O)(=O)c3ccccc3Cl)C2)nc2c1nnn2Cc1ccc2c(c1)OCCO2 (stereo not drawn) | > 100 µM (inactive) | – |
| CC1(C)CC(=O)c2cnc(N3CCc4ccccc43)nc2C1 | > 100 µM (inactive) | – |
| CC(=O)c1ccc(N2CCN(C(=O)C3CCN(S(=O)(=O)c4ccc5c(c4)CC(C)N5C(C)=O)CC3)CC2)cc1 (stereo not drawn) | > 100 µM (inactive) | – |
| COc1ccc(CNc2ccc([N+](=O)[O-])cc2C)cc1 | > 100 µM (inactive) | – |
| O=C(NCc1nc2ccccc2[nH]1)c1ccc(S(=O)(=O)N2CCCC2)cc1 | > 100 µM (inactive) | – |
| Cc1cccc(NC(=O)CC23CC4CC(C2)CC(n2nnc(C)n2)(C4)C3)c1 | > 100 µM (inactive) | – |
| COC(=O)c1ccc(CN2CCCC(CO)(Cc3ccccc3F)C2)cc1 (stereo not drawn) | > 100 µM (inactive) | – |
| CSc1ccccc1NC(=O)c1ccccc1N(Cc1ccccc1)S(C)(=O)=O | > 100 µM (inactive) | – |
| CCOC(=O)C1CCCN(C(=O)c2csc(-c3ccc4c(c3)CCO4)n2)C1 (stereo not drawn) | > 100 µM (inactive) | – |
| CC1=Nc2cc(C(=O)NCC3CCCO3)ccc2Sc2ccc(Br)cc21 (stereo not drawn) | > 100 µM (inactive) | – |
| Cc1cc(C(=O)NCCC2=CCCCC2)ccc1[N+](=O)[O-] | > 100 µM (inactive) | – |
| CCN(CC)S(=O)(=O)c1cc(NS(=O)(=O)c2cccc(Cl)c2Cl)ccc1C | > 100 µM (inactive) | – |
| CCn1nc(Cc2cccc3ccccc23)c(C#N)c1N | > 100 µM (inactive) | – |
| Cc1ccsc1C(=O)OCC(=O)N1CCc2ccccc2C1 | > 100 µM (inactive) | – |
| O=C(CN1c2ccccc2S(=O)(=O)c2ccccc21)NCc1ccc(F)cc1 | > 100 µM (inactive) | – |
| Cc1ccc2nc(SCC(=O)c3ccc(O)cc3O)[nH]c2c1 | > 100 µM (inactive) | – |
| Cc1cc(C(=O)Nc2cccc3c2O[C@H](CN(C)S(=O)(=O)c2ccc(Cl)cc2)[C@H](C)CN([C@H](C)CO)C3=O)n(C)n1 | > 100 µM (inactive) | – |
| COc1cccc(NC2=Nc3cccc4cccc2c34)c1 | > 100 µM (inactive) | – |
| CC1(C(=O)NS(=O)(=O)c2ccc3c(c2)CCO3)CCN1C(=O)c1ccccc1CCc1ccccc1 (stereo not drawn) | > 100 µM (inactive) | – |
| CCN(C(=O)COC(=O)c1ccc([N+](=O)[O-])o1)c1cccc2ccccc12 | > 100 µM (inactive) | – |

| SMILES | AC50 | AC50 (measured here: WT GFP, test 1) |
| --- | --- | --- |
| CCOC(=O)c1cnc2c(cnn2C)c1NCc1ccc(OC)cc1 | > 100 µM (inactive) | – |
| O=C(c1ccccc1)N(c1ccccc1)c1nccc2ccccc12 | > 100 µM (inactive) | – |
| CC(C(=O)Nc1nc2ccccc2s1)n1cc([N+](=O)[O-])cn1 (stereo not drawn) | > 100 µM (inactive) | – |
| O=C(Nc1cccc(-c2cn3ccccc3n2)c1)c1ccccc1 | > 100 µM (inactive) | – |
| Cc1ccc(C(=O)C2CCN(CC(=O)Nc3nc(C)cs3)CC2)cc1 | > 100 µM (inactive) | – |
| COc1ccc(NS(=O)(=O)c2cc(NC(=O)CNC(=O)c3cccc(OC)c3)ccc2C)cc1 | > 100 µM (inactive) | – |
| COc1cccc(CNC(=O)CCSCc2ccccc2F)c1 | > 100 µM (inactive) | – |
| COc1ccc(OC)c(N(CC(=O)Nc2ccccc2F)S(=O)(=O)c2ccccc2)c1 | > 100 µM (inactive) | – |
| COc1ccc(-c2csc3ncn(-c4ccc(C)cc4)c(=O)c23)cc1OC | > 100 µM (inactive) | – |
| O=C(O)c1ccc(Oc2ccc([N+](=O)[O-])cc2)c([N+](=O)[O-])c1 | > 100 µM (inactive) | – |
| COc1ccc2nc(SCC(=O)Nc3ccccc3)[nH]c2c1 | > 100 µM (inactive) | – |
| COc1ccccc1CN1Cc2ccccc2Oc2ccccc2S1(=O)=O | > 100 µM (inactive) | – |
| O=C(Cc1cccc(NC(=O)C2CCN(C(=O)C3CCCCC3)CC2)c1)Nc1cccc(C(=O)N2CCCC2)c1 | > 100 µM (inactive) | – |
| CCn1nc(C)cc1C(=O)N1CCCC(C(=O)c2ccc3ccccc3c2)C1 (stereo not drawn) | > 100 µM (inactive) | – |
| CC1Sc2ccc(S(=O)(=O)NCc3ccccc3)cc2NC1=O (stereo not drawn) | > 100 µM (inactive) | – |
| COc1ccc(CNS(=O)(=O)c2ccc3c(c2)NC(=O)C(C)S3)cc1 (stereo not drawn) | > 100 µM (inactive) | – |
| COc1ccc(C(=O)N(c2ccccc2)c2nccc3ccccc23)cc1OC | > 100 µM (inactive) | – |
| Cc1nn(C(C)(C)C)c(OC(=O)CC(C)C)c1S(=O)(=O)c1ccccc1 | > 100 µM (inactive) | – |
| Nc1nc(Nc2ccccc2F)nc(N2CCOCC2)c1[N+](=O)[O-] | > 100 µM (inactive) | – |
| CC(NCc1ccc(S(N)(=O)=O)cc1)C(=O)Nc1cc([N+](=O)[O-])ccc1Cl (stereo not drawn) | > 100 µM (inactive) | – |
| COc1cccc(NC(=O)C2CCC(CNS(=O)(=O)c3cccs3)CC2)c1 (stereo not drawn) | > 100 µM (inactive) | – |
